Reference: patent US4431636A, “Bis(4-O-polyhexaose-thio)-phenyl ureas and method of use” (American Cyanamid Company, priority 1982, dated 1984)
Read-outs that look alike come from different tables or passages of the source.

Tests used:
activated human C1 = activated human C1 (Homo sapiens, UniProt P09871); assay: Test Code 026 (C1 inhibitor); type: biochemical; conditions: in vitro; serial twofold dilution assay, higher well number higher activity
Procedure: (§1) Percent inhibition is calculated by comparison with simultaneous controls.

[1] = system: late components of human complement (C3-C9); assay: Test Code 035 (C3-C9 inhibitor); type: biochemical; conditions: in vitro; lysis of EAC 142; serial twofold dilution assay, higher well number higher activity
Procedure: as §1

[2] = system: serum complement activity; assay: Guinea Pig Intraperitoneal Test (GPIP); type: in vivo; conditions: Cavia porcellus, ip, 200 mg/kg i.p.
Procedure: as §1

Chain of activated human C1 (P09871 16-688): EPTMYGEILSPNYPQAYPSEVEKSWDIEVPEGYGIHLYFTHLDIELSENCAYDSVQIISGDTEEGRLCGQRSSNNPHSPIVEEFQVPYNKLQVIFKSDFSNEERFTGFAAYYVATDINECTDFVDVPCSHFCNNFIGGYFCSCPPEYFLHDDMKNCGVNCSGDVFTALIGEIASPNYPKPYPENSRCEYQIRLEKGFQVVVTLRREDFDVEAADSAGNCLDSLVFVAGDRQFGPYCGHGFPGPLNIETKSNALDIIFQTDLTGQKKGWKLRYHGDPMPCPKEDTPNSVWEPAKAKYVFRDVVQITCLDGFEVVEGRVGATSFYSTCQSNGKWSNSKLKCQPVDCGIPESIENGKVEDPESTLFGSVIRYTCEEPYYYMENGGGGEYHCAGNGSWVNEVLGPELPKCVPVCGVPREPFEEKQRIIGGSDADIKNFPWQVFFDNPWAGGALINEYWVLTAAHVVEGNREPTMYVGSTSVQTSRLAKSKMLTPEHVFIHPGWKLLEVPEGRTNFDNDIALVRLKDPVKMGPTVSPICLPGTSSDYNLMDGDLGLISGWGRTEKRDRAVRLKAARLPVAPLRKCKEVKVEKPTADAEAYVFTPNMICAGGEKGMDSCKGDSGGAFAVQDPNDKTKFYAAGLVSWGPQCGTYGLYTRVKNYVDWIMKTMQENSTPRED
Chain of activated human C1 (P00736 18-705 partner): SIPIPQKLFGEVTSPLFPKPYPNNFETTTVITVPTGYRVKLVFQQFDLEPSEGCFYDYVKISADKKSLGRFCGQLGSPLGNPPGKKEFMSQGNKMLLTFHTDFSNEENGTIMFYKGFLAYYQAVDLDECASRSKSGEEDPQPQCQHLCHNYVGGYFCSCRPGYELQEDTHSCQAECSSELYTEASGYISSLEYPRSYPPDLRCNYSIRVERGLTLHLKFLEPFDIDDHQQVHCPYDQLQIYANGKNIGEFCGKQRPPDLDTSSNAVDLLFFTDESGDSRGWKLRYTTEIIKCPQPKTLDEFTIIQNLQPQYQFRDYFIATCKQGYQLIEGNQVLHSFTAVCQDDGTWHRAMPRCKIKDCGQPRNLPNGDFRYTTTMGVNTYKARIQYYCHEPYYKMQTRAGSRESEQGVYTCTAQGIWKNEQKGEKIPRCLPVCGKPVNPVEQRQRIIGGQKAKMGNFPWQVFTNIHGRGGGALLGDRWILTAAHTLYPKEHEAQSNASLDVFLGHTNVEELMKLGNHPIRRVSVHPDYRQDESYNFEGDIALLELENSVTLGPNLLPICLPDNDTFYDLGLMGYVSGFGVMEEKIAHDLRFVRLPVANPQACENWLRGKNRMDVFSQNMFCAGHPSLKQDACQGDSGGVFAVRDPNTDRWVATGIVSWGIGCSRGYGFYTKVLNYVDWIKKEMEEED
Chain of activated human C1 (P02745 23-245 partner): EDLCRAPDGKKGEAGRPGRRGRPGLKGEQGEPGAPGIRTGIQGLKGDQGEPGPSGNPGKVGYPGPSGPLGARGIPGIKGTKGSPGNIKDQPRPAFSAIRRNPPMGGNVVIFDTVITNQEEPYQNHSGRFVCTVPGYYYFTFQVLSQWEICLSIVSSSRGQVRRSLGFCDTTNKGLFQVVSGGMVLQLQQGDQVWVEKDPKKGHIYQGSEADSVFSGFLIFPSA
Chain of activated human C1 (P02746 28-253 partner): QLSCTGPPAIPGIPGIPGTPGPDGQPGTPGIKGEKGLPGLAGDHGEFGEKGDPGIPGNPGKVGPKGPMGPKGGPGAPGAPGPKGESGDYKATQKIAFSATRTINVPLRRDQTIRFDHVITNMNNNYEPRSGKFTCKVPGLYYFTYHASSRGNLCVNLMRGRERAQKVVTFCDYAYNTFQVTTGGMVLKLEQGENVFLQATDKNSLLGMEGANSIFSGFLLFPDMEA
Chain of activated human C1 (P02747 29-245 partner): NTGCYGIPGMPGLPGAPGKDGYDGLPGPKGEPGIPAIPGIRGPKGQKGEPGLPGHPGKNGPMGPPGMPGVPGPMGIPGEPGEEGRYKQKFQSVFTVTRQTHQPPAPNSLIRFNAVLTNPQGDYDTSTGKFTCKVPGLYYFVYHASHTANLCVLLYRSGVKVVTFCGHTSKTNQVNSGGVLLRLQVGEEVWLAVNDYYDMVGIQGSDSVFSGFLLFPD

Q: What does the source list for `O=C(Nc1ccc(S[C@@H]2O[C@H](COS(=O)(=O)O)[C@@H](O[C@H]3O[C@H](COS(=O)(=O)O)[C@@H](OS(=O)(=O)O)[C@H](OS(=O)(=O)O)[C@H]3OS(=O)(=O)O)[C@H](OS(=O)(=O)O)[C@H]2OS(=O)(=O)O)cc1)Nc1ccc(S[C@@H]2O[C@H](COS(=O)(=O)O)[C@@H](O[C@H]3O[C@H](COS(=O)(=O)O)[C@@H](OS(=O)(=O)O)[C@H](OS(=O)(=O)O)[C@H]3OS(=O)(=O)O)[C@H](OS(=O)(=O)O)[C@H]2OS(=O)(=O)O)cc1.[Na].[Na].[Na].[Na].[Na].[Na].[Na].[Na].[Na].[Na].[Na].[Na].[Na].[Na]` [Tetradecasodium N,N'-bis[4-[[2,3,6-tri-O-sulfo-4-O-(2,3,4,6-tetra-O-sulfo-α-D-glucopyranosyl)-β-D-glucopyranosyl]thio]phenyl]urea]?
A: C-1 026 Wells (activated human C1): 11 Wells; C-Late 035 Wells [1]: 2 Wells; inhibition at 200 mg/kg ([2]; serum taken 2 hours after injection, read-out: In vivo Activity (Guinea Pig % Inhibition) (Intraperitoneal) Time 2 Hours): 90%; inhibition at 200 mg/kg ([2]; serum taken 6 hours after injection, read-out: In vivo Activity (Guinea Pig % Inhibition) (Intraperitoneal) Time 6 Hours): 91%; inhibition at 200 mg/kg ([2]; serum taken 24 hours after injection, read-out: In vivo Activity (Guinea Pig % Inhibition) (Intraperitoneal) Time 24 Hours): 58%
